How the values were obtained:
[1] = Body weight in SHR hypertensive rats; type: in vivo, Male SHR; conditions: oral once a day 5, 10 then 15 mg/kg
Protocol: (§1) Male SHR were provided by Charles River Laboratories (USA). Until the experiments were carried out, the animals have had free access to feed and water. The room temperature was kept at 22±2° C. and the light/dark cycle was of 12 hours. All procedures were submitted to the Animal Experimentation Ethics Committee.
Distinct rat groups were orally treated, once a day, with 5 mg/kg of compound 5a during the first 4 days, 10 mg/kg during the next 4 days and 15 mg/kg until the end of the treatment period or vehicle (control) for the same days. Similarly, another rat group received metformin (reference drug used for lowering glucose serum levels) in a 300 mg/kg dose, orally, from day 1 to the end of the treatment. Rats were weighted in a CHYO MK2000B precision weight chamber.

[2] = tested on: SHR hypertensive rats; assay: Plasma cholesterol levels test in SHR hypertensive rats; type: in vivo, Male SHR; conditions: 25 days of treatment (15 mg/Kg) oral, effect more pronounced for 5a and 7a
Protocol: (§2) Distinct rat groups were orally treated, once a day, with 5 mg/kg of compounds 4a or 5a or 6a during the first 4 days, 10 mg/kg during the next 4 days and 15 mg/kg until the end of the treatment period or vehicle (control) for the same days. Similarly, another rat group received metformin (MET) (reference drug used for lowering glucose serum levels) in a 300 mg/kg dose, orally, from day 1 to the end of the treatment. Plasma cholesterol levels were measured in triplicate 12 hours after drug administration by the cholesterol oxidase/peroxidase method (BioSystems S.A, Barcelona, Spain). Blood samples were obtained by femoral vein punction. This method was chosen because of its noninvasive character, enabling daily measurements with the same rats throughout the entire treatment.
as §1
as §2, with “metformin” for “metformin (MET)”, “Blood pressure was” for “Plasma cholesterol levels were”, “4” for “12”, “administration in warmed warmed, restrained, conscious rats” for “administration”, “tail-cuff” for “cholesterol oxidase/peroxidase”, “with a computerized oscillometric system recorder (Nyprem, Cibertec).” for “(BioSystems S.A, Barcelona, Spain). Blood samples were obtained by femoral vein punction.”

[3] = tested on: female Swiss mice; assay: Acute oral toxicology study in a mice model; type: in vivo; conditions: oral 2000 mg/kg single dose, observation for 14 days
Protocol: The experiments were conducted using female Swiss mice (20-30 g), housed under a 12-h light-dark cycle, with controlled humidity (60-80%), and temperature (22±1° C.). Food and water were freely available to the mice.
Female mice (n=6) were orally (2000 mg/kg) administered with a single dose of 4a, 5a, and 7a for the observation of acute signs of toxicity until 14 days. […] The observations comprised the behavior and manifestations of the toxic symptoms, and were carried out according to the Guidelines of the Organization for Economic Cooperation and Development (OECD, 2008).
All compounds were dissolved in sterile saline and were administered by oral gavage to mice based in the weight, for example 20 g received 20 μL.
The data are expressed as mean±S.E.M. of experiments. Statistical significance was determined through one-way analysis of variances (ANOVA), followed by either Newman-Keuls test. A p<0.05 was considered statistically significant. Graphs were drawn and statistical analysis was carried out using GraphPad Prism version 5.00 for Windows (GraphPad Software, San Diego, Calif., USA).

[4] = tested on: Drosophila melanogaster (Oregon-R strain); assay: Toxicology study: larva-to-adult viability and development time; conditions: in vivo
Excerpt: The purpose of this study was to test and compare the potential toxic effects of compounds 5a, 6a and 7a on the larva-to-adult viability and development time in a Drosophila melanogaster (Oregon-R) flies. These studies have a relevant predictive role with the aim to anticipate possible adverse toxicological effects that may happen during preclinical studies with animal, preferably mammals. In addition, the data provided are highly quantitative.
Drosophila melanogaster (Oregon-R) flies were obtained by the University of the Balearic Islands (Spain). […] The larvae were seeded on standard food supplemented with the appropriate dose of compounds tested. Each compound was tested at 1, 10, 100, 1000 and 2000 μg/ml dissolved in standard food.
Fly adults were transferred from the serial transfer system to bottles with fresh food for 24 h. Adults 5 days old were placed on egg collecting devices (layers) containing a mixture of agar, water, acetic acid, and ethyl alcohol, with a drop of active yeast on it. Every 2 h., the layer glasses were changed, in this way, the eggs of a glass have similar age, with a maximum difference of 2 h. among them. The glasses of the layers were kept at 25° C. for at least 22 h. in Petri dishes until larvae hatched. Fifty larvae were picked with a lancet under a stereoscopic microscope and were seeded into 10×2 cm vials with 5 ml food. Vials were supplemented with 4a, 5a and 7a at 1, 10 and 100 μg/ml. As positive control we used cupric acetate (toxic) at 350 μg/ml.
The number of adult flies which emerged from each vial was counted daily until the exhaustion of the culture. The parameters studied were the larvae-to-adult viability (V) and development time.
Viability is expressed as V=NA/NL, where NL is the input number of larvae ([…] in our case) and NA the output number of adults emerging from these NL larvae. Development time was measured in days by the formula DT=ΣNidi/ΣNi where Ni is the number of flies emerging on the day di after the larvae were placed in the medium.
The data are expressed as the mean±SEM values from 3 independent experiments involving triplicate vials at the number of flies indicated.

## COc1ccc(-c2nc(C(=O)NCCCN)cc3c2[nH]c2ccccc23)cc1 [Compound 5a, N(-propylamine)-1-benzosubstituted-β-carboline-3-carboxamide]
[1]
  SHR body weight compared to control untreated rats: statistically significant effect in lowering SHR body weight
[2]
  plasma cholesterol levels: inhibition of plasma cholesterol levels
[3]
  mortality or behavioral disorders (acute signs of toxicity): did not produce mortality or any behavioral disorders
[4]
  larvae-to-adult viability and development time: not affected
